# Test results taken from US20250319107A1, “USE OF CANNABIDIOL AND CLOBAZAM IN THE TREATMENT OF CHILDHOOD-ONSET EPILEPSY SYNDROMES” (GW Research Limited, priority 2021, published 2025).
# Experiments:
# Type in all cases: in vivo, human
# patients with TSC = assay: Phase 3 randomized controlled trial of CBD versus placebo, adverse reactions in TSC patients; conditions: for Alanine aminotransferase increased, adverse reaction incidence / Anaemia, adverse reaction incidence / Aspartate aminotransferase increased, adverse reaction incidence / Decreased appetite, adverse reaction incidence / Diarrhoea, adverse reaction incidence / Eosinophil count increased, adverse reaction incidence / Fatigue, adverse reaction incidence / Gamma glutamyl transferase increased, adverse reaction incidence / Nausea, adverse reaction incidence / Pneumonia (grouped terms), adverse reaction incidence / Pyrexia, adverse reaction incidence / Rash, adverse reaction incidence / Somnolence, adverse reaction incidence / Urinary tract infection, adverse reaction incidence / Vomiting, adverse reaction incidence / Weight decreased, adverse reaction incidence / Subjects with pneumonia, %: TSC; for Alanine aminotransferase increased, adverse reaction incidence / Anaemia, adverse reaction incidence / Aspartate aminotransferase increased, adverse reaction incidence / Decreased appetite, adverse reaction incidence / Diarrhoea, adverse reaction incidence / Eosinophil count increased, adverse reaction incidence / Fatigue, adverse reaction incidence / Gamma glutamyl transferase increased, adverse reaction incidence / Nausea, adverse reaction incidence / Pneumonia (grouped terms), adverse reaction incidence / Pyrexia, adverse reaction incidence / Rash, adverse reaction incidence / Somnolence, adverse reaction incidence / Urinary tract infection, adverse reaction incidence / Vomiting, adverse reaction incidence / Weight decreased, adverse reaction incidence: 12-week treatment
# Excerpt: (§1) Randomized, double-blind, parallel-group, trials of CBD versus placebo were undertaken and the adverse event experienced by the patients were collated and investigated.
# (§2) In summary patients completed a 1-week screening period and a 4-week baseline period before they were randomized to receive CBD or equivalent volumes of placebo. Randomization was stratified by age.
# (§3) Patients began a 4-week dose escalation period, titrating up to their assigned dose, before continuing on a stable dose of blinded investigational medicinal product (IMP) for 12 or 14 weeks.
# (§4) Dose escalation for each patient was subject to the investigator's assessment of safety and tolerability. If a dose became poorly tolerated, the investigator may consider temporarily or permanently reducing the dose for the remainder of the study.
# (§5) Clinic visits occurred for screening (Day-35), baseline (Day-28), randomization (Day 1) and, on Days 15 and 29 during titration and on Days 43, 57, 71 (telephone) and 85 until the end of treatment (Day 113). Safety telephone calls were completed every two days during titration, one week after the end of titration and, for patients not entering the open label extension (OLE), weekly from Visit 10 to Visit 12.
# (§6) Safety and tolerability measures that were recorded included: adverse events; clinical laboratory parameters; 12-lead electrocardiogram (ECG); physical examination parameters (including height and weight); vital signs; Columbia-Suicide Severity Rating Scale (C-SSRS; 19+ years) or C-SSRS Children's (6-18 years) score, where applicable; number of inpatient hospitalizations due to epilepsy; abuse liability and effects on menstruation cycles (in females).
# Table 1.12 below lists the adverse reactions that were reported in TSC patients treated with CBD during the 12-week treatment period in the Phase 3 controlled trial.
# [1] = test system: healthy adults and patients with LGS, DS, and TSC; assay: Controlled studies, serum creatinine
# Excerpt: CBD can cause elevations in serum creatinine. The mechanism has not yet been determined. In controlled studies in healthy adults and in patients with LGS, DS, and TSC, an increase in serum creatinine of approximately 10% was observed within 2 weeks of starting CBD-OS. The increase was reversible in healthy adults. Reversibility was not assessed in studies in LGS, DS, or TSC.
# patients with LGS or DS = assay: Phase 3 randomized controlled trials of CBD versus placebo, adverse reactions in DS and LGS patients; conditions: 10 mg/kg/day (n = 139); DS and LGS; 14-week treatment
# Excerpt: as §1, §2, §3, §4, §5, §6
# Table 1.1 below lists the adverse reactions that were reported in DS and LGS patients treated with CBD during the 14-week treatment period in the Phase 3 controlled trials.
# [2] = 50 mg/kg/day group (N = 73; one-third did not reach 50 mg/kg/day)
structure (smiles),measurement,setting,value
"C=C(C)[C@@H]1CCC(C)=C[C@H]1c1c(O)cc(CCCCC)cc1O [CBD, cannabidiol]","Alanine aminotransferase increased, adverse reaction incidence",patients with TSC; 25 mg/kg/day (N = 75),12%
same,"Anaemia, adverse reaction incidence",patients with TSC; 25 mg/kg/day (N = 75),7%
same,"Aspartate aminotransferase increased, adverse reaction incidence",patients with TSC; 25 mg/kg/day (N = 75),11%
same,"Decreased appetite, adverse reaction incidence",patients with TSC; 25 mg/kg/day (N = 75),20%
same,"Diarrhoea, adverse reaction incidence",patients with TSC; 25 mg/kg/day (N = 75),31%
same,"Eosinophil count increased, adverse reaction incidence",patients with TSC; 25 mg/kg/day (N = 75),5%
same,"Fatigue, adverse reaction incidence",patients with TSC; 25 mg/kg/day (N = 75),5%
same,"Gamma glutamyl transferase increased, adverse reaction incidence",patients with TSC; 25 mg/kg/day (N = 75),16%
same,"Nausea, adverse reaction incidence",patients with TSC; 25 mg/kg/day (N = 75),9%
same,"Pneumonia (grouped terms), adverse reaction incidence",patients with TSC; 25 mg/kg/day (N = 75),4%
same,"Pyrexia, adverse reaction incidence",patients with TSC; 25 mg/kg/day (N = 75),19%
same,"Rash, adverse reaction incidence",patients with TSC; 25 mg/kg/day (N = 75),7%
same,"Somnolence, adverse reaction incidence",patients with TSC; 25 mg/kg/day (N = 75),13%
same,"Urinary tract infection, adverse reaction incidence",patients with TSC; 25 mg/kg/day (N = 75),5%
same,"Vomiting, adverse reaction incidence",patients with TSC; 25 mg/kg/day (N = 75),17%
same,"Weight decreased, adverse reaction incidence",patients with TSC; 25 mg/kg/day (N = 75),7%
same,Patients who developed a new laboratory-defined anaemia during the study,"patients with TSC; 25 mg/kg/day, patients with TSC, normal haemoglobin at baseline, later below lower limit of normal",38%
same,"Alanine aminotransferase increased, adverse reaction incidence",patients with TSC; [2],22%
same,"Anaemia, adverse reaction incidence",patients with TSC; [2],4%
same,"Aspartate aminotransferase increased, adverse reaction incidence",patients with TSC; [2],19%
same,"Decreased appetite, adverse reaction incidence",patients with TSC; [2],23%
same,"Diarrhoea, adverse reaction incidence",patients with TSC; [2],56%
same,"Eosinophil count increased, adverse reaction incidence",patients with TSC; [2],1%
same,"Fatigue, adverse reaction incidence",patients with TSC; [2],6%
same,"Gamma glutamyl transferase increased, adverse reaction incidence",patients with TSC; [2],14%
same,"Nausea, adverse reaction incidence",patients with TSC; [2],3%
same,"Pneumonia (grouped terms), adverse reaction incidence",patients with TSC; [2],3%
same,"Pyrexia, adverse reaction incidence",patients with TSC; [2],16%
same,"Rash, adverse reaction incidence",patients with TSC; [2],12%
same,"Somnolence, adverse reaction incidence",patients with TSC; [2],26%
same,"Urinary tract infection, adverse reaction incidence",patients with TSC; [2],1%
same,"Vomiting, adverse reaction incidence",patients with TSC; [2],18%
same,"Weight decreased, adverse reaction incidence",patients with TSC; [2],8%
same,"Subjects with pneumonia, %","patients with TSC; With CLB, 25 mg/kg/day, N1 = 18",16.7%
same,"Subjects with pneumonia, %","patients with TSC; With CLB, 50 mg/kg/day, N1 = 20",5.0%
same,"Subjects with pneumonia, %","patients with TSC; Without CLB, 50 mg/kg/day, N2 = 53",1.9%
same,Discontinuation for transaminase elevation,patients with TSC; controlled trial in TSC,dose responsive
same,Pneumonia incidence,"patients with TSC; with concomitant clobazam, 25 mg/kg/day, patients with TSC",17%
same,Pneumonia incidence,"patients with TSC; without clobazam, 25 mg/kg/day, patients with TSC",0%
same,Reversibility of the serum creatinine increase,[1]; healthy adults,reversible
same,Increase in serum creatinine,"[1]; within 2 weeks of starting CBD-OS, healthy adults and patients with LGS, DS, and TSC",approximately 10%
same,"Abnormal behavior, adverse reaction incidence",patients with LGS or DS,0%
same,"Aggression, adverse reaction incidence",patients with LGS or DS,2%
same,"Agitation, adverse reaction incidence",patients with LGS or DS,0%
same,"Alanine aminotransferase increased, adverse reaction incidence",patients with LGS or DS,4%
same,"Aspartate aminotransferase increased, adverse reaction incidence",patients with LGS or DS,4%
same,"Decreased appetite, adverse reaction incidence",patients with LGS or DS,17%
same,"Diarrhea, adverse reaction incidence",patients with LGS or DS,13%
same,"Drooling, adverse reaction incidence",patients with LGS or DS,0%
same,"Fatigue, adverse reaction incidence",patients with LGS or DS,7%
same,"Gamma-glutamyl transferase increased, adverse reaction incidence",patients with LGS or DS,4%
same,"Insomnia, adverse reaction incidence",patients with LGS or DS,4%
same,"Irritability, adverse reaction incidence",patients with LGS or DS,7%
same,"Lethargy, adverse reaction incidence",patients with LGS or DS,3%
same,"Liver function test increased, adverse reaction incidence",patients with LGS or DS,0%
same,"Pneumonia (grouped terms), adverse reaction incidence",patients with LGS or DS,9%
same,"Pyrexia, adverse reaction incidence",patients with LGS or DS,17%
